From ChEMBL document CHEMBL1201862, “PubChem BioAssay data set” (2004) come the findings set out here.

Test systems include NCI-H460; NCI-H23; HCC 2998; SNB-75; RPMI-8226; OVCAR-5; SN12C; OVCAR-8; HL-60; LOX IMVI; SF-268; RXF 393; U-251; HOP-62; T47D; HCT-116; SF-539; SR; BT-549.
What all share (assay): growth of human tumour cells (NCI), 48 h

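Briefly, cells in 96-well plates were exposed to five compound concentrations for 48 h, and endpoints were estimated by linear interpolation. GI50: concentration for 50% inhibition of growth.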 Active and inactive are the calls of the source. Rule as the data show it: active = GI50 up to about 1.1 µM and inactive = higher. Bounds are passed on as bounds.

`CCCC(=O)CC(C)C(=O)C(=O)NC12CC3CC(CC(C3)C1)C2` (centres undefined): the GI50 with NCI-H460 was > 100 µM (inactive); with NCI-H23 it was > 100 µM (inactive); in the experiment on HCC 2998 it was > 100 µM (inactive); in the experiment on SNB-75, 97.5 µM (inactive); in the experiment on RPMI-8226, > 100 µM (inactive); in the experiment with OVCAR-5, > 100 µM (inactive). The GI50 in the experiment on SN12C, with OVCAR-8, in the experiment with HL-60, in the experiment with LOX IMVI, in the experiment on SF-268 and in the experiment with RXF 393 was > 100 µM (inactive) in each case. The GI50 with U-251 and in the experiment on HOP-62 was > 100 µM (inactive) throughout.

On to `OC1c2ccccc2CCC1C(O)(C(F)(F)F)C(F)(F)F` (centres undefined), for which the GI50 was > 100 µM (inactive) with T47D; > 100 µM (inactive) with NCI-H460; 85.1 µM (inactive) in the experiment on NCI-H23; > 100 µM (inactive) in the experiment on HCC 2998; > 100 µM (inactive) with HCT-116; 45.8 µM (inactive) in the experiment on SNB-75. In addition, the GI50 with RPMI-8226, with OVCAR-5, in the experiment on SN12C, in the experiment on OVCAR-8, in the experiment with HL-60 and in the experiment on LOX IMVI was > 100 µM (inactive) in each case. Besides, the GI50 in the experiment on SF-268, in the experiment on RXF 393, with SF-539, with U-251, in the experiment on SR and with HOP-62 was > 100 µM (inactive) each time.

With `O=c1[nH]c2ccc(CC(=S)N3CCOCC3)cc2o1`, the GI50 with NCI-H460, in the experiment on NCI-H23, in the experiment with HCT-116, in the experiment on SNB-75, in the experiment on OVCAR-5 and with OVCAR-8 was > 100 µM (inactive) each time. Also, the GI50 in the experiment with HL-60 is 89.9 µM (inactive); in the experiment on BT-549, > 100 µM (inactive); with LOX IMVI, > 100 µM (inactive); with SF-268, > 100 µM (inactive); in the experiment on RXF 393 it was > 100 µM (inactive); with SF-539, > 100 µM (inactive). The GI50 with U-251 was > 100 µM (inactive); in the experiment with SR, 56.6 µM (inactive); in the experiment on HOP-62 it was > 100 µM (inactive).

Regarding `CC(=O)N1c2ccccc2C2=CC3C4C(=O)N(c5ccccc5)C(=O)C4C21C1C(=O)N(c2ccccc2)C(=O)C31` (centres undefined), the GI50 with NCI-H460 is 16.8 µM (inactive); with NCI-H23 it was 48.2 µM (inactive); in the experiment on HCC 2998, 20.7 µM (inactive); in the experiment on HCT-116 it was 3.83 µM (inactive); with SNB-75 it was 31.1 µM (inactive); in the experiment on OVCAR-5, 55.1 µM (inactive). The GI50 was 42.7 µM (inactive) in the experiment with SN12C; 23.1 µM (inactive) in the experiment on OVCAR-8; 20.7 µM (inactive) with HL-60; 43.9 µM (inactive) in the experiment with LOX IMVI; 17.3 µM (inactive) in the experiment on SF-268; 2.61 µM (inactive) in the experiment on SF-539. The GI50 is 13.9 µM (inactive) in the experiment with U-251 and 32.5 µM (inactive) in the experiment with SR.

As for `CC(C)(O)/C=C\P(=O)(O)O`, the GI50 with T47D is 7.1 µM (inactive); in the experiment with NCI-H460, > 100 µM (inactive); with NCI-H23, > 100 µM (inactive); with HCC 2998, > 100 µM (inactive); in the experiment on HCT-116, > 100 µM (inactive); in the experiment on SNB-75, > 100 µM (inactive). For the same molecule, the GI50 in the experiment on OVCAR-5, in the experiment on SN12C, in the experiment with OVCAR-8, in the experiment on LOX IMVI, in the experiment on SF-268 and in the experiment on RXF 393 was > 100 µM (inactive) each time. In addition, the GI50 in the experiment with SF-539, in the experiment on U-251, with SR and with HOP-62 was > 100 µM (inactive) in each case.

Consider `CCOC(=O)N1CCC2(CC1)C[C@](C)(C(C)=O)C(C)O2` (some centres undefined), for which the GI50 with NCI-H460, in the experiment with NCI-H23, in the experiment with HCC 2998, in the experiment on RPMI-8226, in the experiment with OVCAR-5 and with OVCAR-8 was > 100 µM (inactive) in each case. For the same molecule, the GI50 in the experiment with HL-60 was 2.81 µM (inactive); in the experiment with LOX IMVI it was > 100 µM (inactive); in the experiment on SF-268, > 100 µM (inactive); in the experiment on SF-539, > 100 µM (inactive); with U-251, > 100 µM (inactive); in the experiment on SR it was > 100 µM (inactive). In addition, in the experiment with HOP-62, the GI50 is > 100 µM (inactive).

As to `COC(=O)C1CCC(=O)N1CN(C(C)=O)c1cccc(O)c1` (centres undefined), the GI50 in the experiment with T47D, in the experiment on NCI-H460, with NCI-H23, with HCT-116, with SNB-75 and in the experiment on RPMI-8226 was > 100 µM (inactive) in each case. Moreover, the GI50 in the experiment with OVCAR-5, in the experiment on SN12C, with OVCAR-8, in the experiment with HL-60, with LOX IMVI and in the experiment with SF-268 was > 100 µM (inactive) throughout. In addition, the GI50 with RXF 393, in the experiment on SF-539, in the experiment on U-251 and in the experiment on HOP-62 was > 100 µM (inactive) throughout.

Take `Cc1c(C#N)c2ccccc2c2nc3ccccc3n12`: the GI50 in the experiment on NCI-H460 was 27.7 µM (inactive); in the experiment with HCC 2998, 64.3 µM (inactive); in the experiment on HCT-116 it was 24.9 µM (inactive); with SNB-75, 73.3 µM (inactive); in the experiment with RPMI-8226 it was > 100 µM (inactive); with OVCAR-5 it was > 100 µM (inactive). The GI50 was 63.2 µM (inactive) in the experiment on SN12C; > 100 µM (inactive) in the experiment on OVCAR-8; > 100 µM (inactive) with HL-60; > 100 µM (inactive) with BT-549; 34.4 µM (inactive) in the experiment with LOX IMVI; > 100 µM (inactive) in the experiment on RXF 393. The GI50 is 39 µM (inactive) in the experiment on SF-539, > 100 µM (inactive) in the experiment with U-251, > 10 µM (inactive) with SR and 75.5 µM (inactive) in the experiment on HOP-62.

On to `O=[N+]([O-])c1ccc(Cl)cc1C1ON=C(c2ccccc2)N1C12CC3CC(CC(C3)C1)C2` (centres undefined), for which the GI50 is > 100 µM (inactive) in the experiment on T47D; > 100 µM (inactive) with NCI-H460; > 100 µM (inactive) in the experiment on NCI-H23; > 100 µM (inactive) in the experiment on HCC 2998; 86.9 µM (inactive) with HCT-116; 0.0245 µM (active) in the experiment on SNB-75. The GI50 with RPMI-8226 is > 100 µM (inactive); in the experiment on OVCAR-5, > 100 µM (inactive); with SN12C, > 100 µM (inactive); in the experiment on HL-60 it was 73.6 µM (inactive); with LOX IMVI, 57.5 µM (inactive); with SF-268 it was > 100 µM (inactive). Besides, the GI50 in the experiment with RXF 393, with SF-539, in the experiment with U-251, in the experiment on SR and in the experiment on HOP-62 was > 100 µM (inactive) in each case.

For `O=S(=O)(c1ccc(/N=C2\NC(c3ccc(O)cc3)(c3ccccc3O)c3ccccc32)cc1)c1ccc(/N=C2/NC(c3ccc(O)cc3)(c3ccccc3O)c3ccccc32)cc1` (centres undefined), the GI50 in the experiment on T47D was 2.25 µM (inactive); with NCI-H460 it was 3.7 µM (inactive); in the experiment with NCI-H23, 2.62 µM (inactive); in the experiment on HCC 2998 it was 4.63 µM (inactive); in the experiment on HCT-116 it was 2.23 µM (inactive); in the experiment with SNB-75, 3.32 µM (inactive). For the same molecule, the GI50 in the experiment on RPMI-8226 is 5.22 µM (inactive); in the experiment with OVCAR-5 it was 9.27 µM (inactive); with SN12C it was 3.78 µM (inactive); in the experiment with OVCAR-8 it was 3.33 µM (inactive); in the experiment with HL-60 it was 1.02 µM (active); in the experiment on LOX IMVI, 2.96 µM (inactive). Also, the GI50 in the experiment with SF-268 is 3.38 µM (inactive); with RXF 393, 4.02 µM (inactive); in the experiment with SF-539 it was 2.75 µM (inactive); with SR, 5.38 µM (inactive); in the experiment with HOP-62, 5.28 µM (inactive).

Regarding `O=C1O[C@@H](c2ccccc2)C[C@@H]1CN1CCOCC1`, the GI50 in the experiment with NCI-H460 is > 100 µM (inactive); in the experiment on NCI-H23 it was 26.3 µM (inactive); in the experiment on HCC 2998, > 100 µM (inactive); in the experiment on SNB-75, > 100 µM (inactive); with RPMI-8226, 59.4 µM (inactive); with OVCAR-5, > 100 µM (inactive). The GI50 with SN12C, with OVCAR-8, with HL-60, in the experiment on LOX IMVI, in the experiment on SF-268 and in the experiment on RXF 393 was > 100 µM (inactive) each time. Further, the GI50 with SF-539, in the experiment with U-251 and with HOP-62 was > 100 µM (inactive) throughout.

For `Oc1nc(S)nc2c1C(c1ccc(Cl)cc1)c1c(O)nc(S)nc1O2`, the GI50 in the experiment on NCI-H460, with NCI-H23, in the experiment on HCT-116, in the experiment on RPMI-8226, in the experiment with OVCAR-5 and in the experiment with SN12C was > 100 µM (inactive) each time. The GI50 is > 100 µM (inactive) with OVCAR-8; > 100 µM (inactive) with HL-60; > 100 µM (inactive) with BT-549; > 100 µM (inactive) in the experiment with LOX IMVI; 25.7 µM (inactive) in the experiment on SF-268; 0.514 µM (active) with RXF 393. The GI50 in the experiment with U-251 and in the experiment with HOP-62 was > 100 µM (inactive) throughout.

With `CSC(SC)=C1C(=O)N(c2ccccc2)N=C1C`, the GI50 in the experiment with NCI-H460 is 23.9 µM (inactive); in the experiment on HCC 2998 it was 46.6 µM (inactive); in the experiment on HCT-116, 22.9 µM (inactive); with SNB-75, 21.2 µM (inactive); with OVCAR-5, 29.5 µM (inactive); with SN12C it was 30.7 µM (inactive). Further, the GI50 was 33.8 µM (inactive) with OVCAR-8; 21.6 µM (inactive) in the experiment with BT-549; 34 µM (inactive) in the experiment on LOX IMVI; 61.1 µM (inactive) in the experiment with SF-268; 25 µM (inactive) in the experiment with RXF 393; 36.7 µM (inactive) with SF-539. The GI50 in the experiment on U-251 was 35.1 µM (inactive); in the experiment on HOP-62, 35.4 µM (inactive).
